Measured values taken from patent US20250325534A1, “MICROBIOCIDAL TETRAHYDROISOQUINOLINE DERIVATIVES” (SYNGENTA CROP PROTECTION AG, priority 2021, published 2025).

How the values were obtained:
Pyrenophora teres = Pyrenophora teres / barley / leaf disc preventative (net blotch); type: in vivo; settings: foliar, inoculated 2 days after application
Protocol: Example B16: Pyrenophora teres/Barley/Leaf Disc Preventative (Net Blotch) Barley leaf segments cv. Hasso are placed on agar in a multiwell plate (24-well format) and sprayed with the formulated test compound diluted in water. The leaf segments are inoculated with a spore suspension of the fungus 2 days after application. The inoculated leaf segments are incubated at 20° C. and 65% relative humidity under a light regime of 12 h light/12 h darkness in a climate cabinet and the activity of a compound is assessed as disease control compared to untreated when an appropriate level of disease damage appears in untreated check leaf segments (5-7 days after application).

Monographella nivalis = Monographella nivalis (Microdochium nivale) / liquid culture (foot rot cereals); type: cell-based; settings: 96 h, photometrically 4-5 days after application, read-out: control of Monographella nivalis
Outline: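 Test compound, applied as a DMSO solution, was challenged with fungal spores suspended in potato dextrose broth; after 4-5 days at 24° C, photometric readout gave inhibition of growth.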

[1] = system: Mycosphaerella graminicola; experiment: Mycosphaerella graminicola (Septoria tritici) / liquid culture (Septoria blotch); type: cell-based; settings: Zymoseptoria tritici, 96 h, photometrically 4-5 days after application, read-out: control of Mycosphaerella graminicola
Outline: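 Growth inhibition measured by photometry 4-5 days post application, at 24° C incubation. Test compound supplied as DMSO solution; fungal conidia from cryostorage suspended directly in potato dextrose broth as inoculum.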

Glomerella lagenarium = Glomerella lagenarium (Colletotrichum lagenarium) / liquid culture (anthracnose); type: cell-based; settings: Colletotrichum orbiculare, 72 h, photometrically 3-4 days after application, read-out: control of Glomerella lagenarium
Outline: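 Conidia in potato dextrose broth added to test compound delivered as DMSO solution in microtiter plates; incubation at 24° C. Growth inhibition read photometrically 3-4 days after application.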

Alternaria solani = Alternaria solani / tomato / leaf disc (early blight); type: in vivo; settings: foliar, inoculated 2 days after application, vs untreated control
Protocol: Example B1: Alternaria solani/Tomato/Leaf Disc (Early Blight) Tomato leaf disks cv. Baby are placed on agar in multiwell plates (24-well format) and sprayed with the formulated test compound diluted in water. The leaf disks are inoculated with a spore suspension of the fungus 2 days after application. The inoculated leaf disks are incubated at 23° C./21° C. (day/night) and 80% relative humidity under a light regime of 12 h/12 h (light/dark) in a climate cabinet and the activity of a compound is assessed as percent disease control compared to untreated when an appropriate level of disease damage appears on untreated check disk leaf disks (5-7 days after application).

Mycosphaerella arachidis = Mycosphaerella arachidis (Cercospora arachidicola) / liquid culture (early leaf spot); type: cell-based; settings: 96 h, photometrically 4-5 days after application, read-out: control of Mycosphaerella arachidis
Outline: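 Photometric growth inhibition, read 4-5 days post-application at 24 °C, of Cercospora arachidicola spores suspended in potato dextrose broth and exposed to test compound delivered from DMSO solution.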

Phaeosphaeria nodorum = Phaeosphaeria nodorum (Septoria nodorum) / wheat / leaf disc preventative (glume blotch); type: in vivo; settings: Parastagonospora nodorum, foliar, inoculated 2 days after application
Protocol: Example B9: Phaeosphaeria nodorum (Septoria nodorum)/Wheat/Leaf Disc Preventative (Glume Blotch) Wheat leaf segments cv. Kanzler are placed on agar in a multiwell plate (24-well format) and sprayed with the formulated test compound diluted in water. The leaf disks are inoculated with a spore suspension of the fungus 2 days after application. The inoculated test leaf disks are incubated at 20° C. and 75% relative humidity under a light regime of 12 h light/12 h darkness in a climate cabinet and the activity of a compound is assessed as percent disease control compared to untreated when an appropriate level of disease damage appears in untreated check leaf disks (5-7 days after application).

Botryotinia fuckeliana = Botryotinia fuckeliana (Botrytis cinerea) / liquid culture (gray mould); type: cell-based; settings: 72 h, growth inhibition photometrically 3-4 days after application, read-out: control of Botryotinia fuckeliana
Protocol: Example B2: Botryotinia Fuckeliana (Botrytis cinerea)/Liquid Culture (Gray Mould) Conidia of the fungus from cryogenic storage are directly mixed into a nutrient broth (Vogels broth). After placing a DMSO solution of test compound into a microtiter plate (96-well format), the nutrient broth containing the fungal spores is added. The test plates are incubated at 24° C. and the inhibition of growth is determined photometrically 3-4 days after application.

Cc1nn(C)c(C)c1C1CN(C(=O)c2cc(-c3ccc(F)cc3F)on2)Cc2ccccc21 (stereo not drawn) [Compound P-126, [5-(2,4-difluorophenyl)isoxazol-3-yl]-[4-(1,3,5-trimethylpyrazol-4-yl)-3,4-dihydro-1H-isoquinolin-2-yl]methanone]
≥ 80%: pest or weed control at 200 ppm (Pyrenophora teres) | inhibition of growth at 20 ppm (Monographella nivalis) | inhibition of growth at 20 ppm [1] | inhibition of growth at 20 ppm (Glomerella lagenarium) | pest or weed control at 200 ppm (Alternaria solani) | inhibition of growth at 20 ppm (Mycosphaerella arachidis)

CON=C(C)C1c2ccccc2C(c2cnn(C)c2)CN1C(=O)c1cc(-c2ccc(F)cc2F)on1 (stereo not drawn) [Compound P-10, [5-(2,4-difluorophenyl)isoxazol-3-yl]-[1-(N-methoxy-C-methyl-carbonimidoyl)-4-(1-methylpyrazol-4-yl)-3,4-dihydro-1H-isoquinolin-2-yl]methanone]
≥ 80%: inhibition of growth at 20 ppm [1] | inhibition of growth at 20 ppm (Glomerella lagenarium) | pest or weed control at 200 ppm (Alternaria solani) | pest or weed control at 200 ppm (Phaeosphaeria nodorum)

CON=C(C)c1c(C2CN(C(=O)c3cc(-c4ccc(F)cc4F)on3)Cc3ccccc32)cnn1C (stereo not drawn) [Compound P-13, [5-(2,4-difluorophenyl)isoxazol-3-yl]-[4-[5-(N-methoxy-C-methyl-carbonimidoyl)-1-methyl-pyrazol-4-yl]-3,4-dihydro-1H-isoquinolin-2-yl]methanone]
≥ 80%: inhibition of growth at 20 ppm (Monographella nivalis) | inhibition of growth at 20 ppm [1] | pest or weed control at 200 ppm (Alternaria solani) | pest or weed control at 200 ppm (Phaeosphaeria nodorum)

CCC1(c2cnn(C)c2)CN(C(=O)c2cc(-c3ccc(F)cc3F)on2)Cc2ccccc21 (stereo not drawn) [Compound P-221, [5-(2,4-difluorophenyl)isoxazol-3-yl]-[4-ethyl-4-(1-methylpyrazol-4-yl)-1,3-dihydroisoquinolin-2-yl]methanone]
≥ 80%: inhibition of growth at 20 ppm [1] | pest or weed control at 200 ppm (Phaeosphaeria nodorum) | inhibition of growth at 20 ppm (Mycosphaerella arachidis)

Cn1cc(C2CN(C(=O)c3cc(-c4ccccc4)no3)Cc3ccccc32)cn1 (stereo not drawn) [Compound P-158, [4-(1-methylpyrazol-4-yl)-3,4-dihydro-1H-isoquinolin-2-yl]-(3-phenylisoxazol-5-yl)methanone]
≥ 80%: inhibition of growth at 20 ppm (Monographella nivalis) | inhibition of growth at 20 ppm [1] | inhibition of growth at 20 ppm (Glomerella lagenarium) | inhibition of growth at 20 ppm (Botryotinia fuckeliana) | pest or weed control at 200 ppm (Alternaria solani) | inhibition of growth at 20 ppm (Mycosphaerella arachidis)

Cc1c(C2CN(C(=O)c3noc(-c4ccc(F)cc4F)n3)Cc3ccccc32)cnn1C (stereo not drawn) [Compound P-228, [5-(2,4-difluorophenyl)-1,2,4-oxadiazol-3-yl]-[4-(1,5-dimethylpyrazol-4-yl)-3,4-dihydro-1H-isoquinolin-2-yl]methanone]
≥ 80%: pest or weed control at 200 ppm (Pyrenophora teres) | inhibition of growth at 20 ppm (Monographella nivalis) | inhibition of growth at 20 ppm [1] | inhibition of growth at 20 ppm (Glomerella lagenarium) | pest or weed control at 200 ppm (Alternaria solani) | inhibition of growth at 20 ppm (Mycosphaerella arachidis)

Cc1ccc(-c2cc(C(=O)N3Cc4ccccc4C(c4cnn(C)c4)C3)no2)cc1 (stereo not drawn) [Compound P-204, [4-(1-methylpyrazol-4-yl)-3,4-dihydro-1H-isoquinolin-2-yl]-[5-(p-tolyl)isoxazol-3-yl]methanone]
≥ 80%: inhibition of growth at 20 ppm [1] | pest or weed control at 200 ppm (Phaeosphaeria nodorum)

Cn1cc(C2CN(C(=O)c3cc(-c4ccc(F)cc4F)on3)Cc3ccc(C#N)cc32)cn1 (stereo not drawn) [Compound P-62, 2-[5-(2,4-difluorophenyl)isoxazole-3-carbonyl]-4-(1-methylpyrazol-4-yl)-3,4-dihydro-1H-isoquinoline-6-carbonitrile]
≥ 80%: inhibition of growth at 20 ppm (Monographella nivalis) | inhibition of growth at 20 ppm [1] | inhibition of growth at 20 ppm (Glomerella lagenarium) | pest or weed control at 200 ppm (Phaeosphaeria nodorum)

Cn1cc([C@]2(C)CN(C(=O)c3cc(-c4ccc(F)cc4F)on3)Cc3ccccc32)cn1 (single isomer, unassigned) [Compound P-49]
≥ 80%: inhibition of growth at 20 ppm (Monographella nivalis) | inhibition of growth at 20 ppm [1] | inhibition of growth at 20 ppm (Glomerella lagenarium) | inhibition of growth at 20 ppm (Botryotinia fuckeliana) | pest or weed control at 200 ppm (Phaeosphaeria nodorum)

COc1ccc2c(c1)C(C)(c1cnn(C)c1)CN(C(=O)c1cc(-c3ccc(F)cc3F)on1)C2C (stereo not drawn) [Compound P-40, [5-(2,4-difluorophenyl)isoxazol-3-yl]-[6-methoxy-1,4-dimethyl-4-(1-methylpyrazol-4-yl)-1,3-dihydroisoquinolin-2-yl]methanone]
≥ 80%: inhibition of growth at 20 ppm (Monographella nivalis) | inhibition of growth at 20 ppm [1] | pest or weed control at 200 ppm (Phaeosphaeria nodorum) | inhibition of growth at 20 ppm (Mycosphaerella arachidis)

COc1ccc2c(c1)C(C)N(C(=O)c1cc(-c3ccc(F)cc3F)on1)CC2(C)c1cnn(C)c1 (stereo not drawn) [Compound P-18, [5-(2,4-difluorophenyl)isoxazol-3-yl]-[7-methoxy-1,4-dimethyl-4-(1-methylpyrazol-4-yl)-1,3-dihydroisoquinolin-2-yl]methanone]
≥ 80%: pest or weed control at 200 ppm (Pyrenophora teres) | inhibition of growth at 20 ppm (Monographella nivalis) | inhibition of growth at 20 ppm [1] | inhibition of growth at 20 ppm (Glomerella lagenarium) | pest or weed control at 200 ppm (Alternaria solani) | inhibition of growth at 20 ppm (Mycosphaerella arachidis)

COc1cc(F)ccc1-c1cc(C(=O)N2Cc3ccccc3C(c3cnn(C)c3C)C2)no1 (stereo not drawn) [Compound P-46, [4-(1,5-dimethylpyrazol-4-yl)-3,4-dihydro-1H-isoquinolin-2-yl]-[5-(4-fluoro-2-methoxy-phenyl)isoxazol-3-yl]methanone]
≥ 80%: inhibition of growth at 20 ppm (Monographella nivalis) | inhibition of growth at 20 ppm [1] | pest or weed control at 200 ppm (Alternaria solani) | pest or weed control at 200 ppm (Phaeosphaeria nodorum) | inhibition of growth at 20 ppm (Mycosphaerella arachidis)

Cn1cc(C2CN(C(=O)c3nnc(-c4ccccc4F)o3)Cc3ccccc32)cn1 (stereo not drawn) [Compound P-54, [5-(2-fluorophenyl)-1,3,4-oxadiazol-2-yl]-[4-(1-methylpyrazol-4-yl)-3,4-dihydro-1H-isoquinolin-2-yl]methanone]
≥ 80%: pest or weed control at 200 ppm (Pyrenophora teres) | inhibition of growth at 20 ppm [1]

COc1ccc2c(c1)C(c1cnn(C)c1)CN(C(=O)c1cc(-c3ccc(F)cc3F)on1)C2C (stereo not drawn) [Compound P-47, [5-(2,4-difluorophenyl)isoxazol-3-yl]-[6-methoxy-1-methyl-4-(1-methylpyrazol-4-yl)-3,4-dihydro-1H-isoquinolin-2-yl]methanone]
≥ 80%: inhibition of growth at 20 ppm (Monographella nivalis) | inhibition of growth at 20 ppm [1] | inhibition of growth at 20 ppm (Glomerella lagenarium) | inhibition of growth at 20 ppm (Botryotinia fuckeliana) | inhibition of growth at 20 ppm (Mycosphaerella arachidis)

Cn1cc(C2CN(C(=O)c3cc(-c4ccc(F)cc4F)on3)Cc3ccccc32)cn1 (single isomer, unassigned) [Compound P-142, [5-(2,4-difluorophenyl)isoxazol-3-yl]-[4-(1-methylpyrazol-4-yl)-3,4-dihydro-1H-isoquinolin-2-yl]methanone]
≥ 80%: inhibition of growth at 20 ppm (Monographella nivalis) | inhibition of growth at 20 ppm [1] | inhibition of growth at 20 ppm (Glomerella lagenarium) | inhibition of growth at 20 ppm (Botryotinia fuckeliana) | pest or weed control at 200 ppm (Alternaria solani) | pest or weed control at 200 ppm (Phaeosphaeria nodorum) | inhibition of growth at 20 ppm (Mycosphaerella arachidis)
